Reference: US9480668B2, “Blood flow promoting agent” (KYOWA HAKKO BIO CO., LTD., priority 2012, dated 2016)

Columns and labels:
[1] = system: thoracic aorta isolated from a rat; assay: Magnus method: vasodilatory potency on aortic ring, relaxation of Norepinephrine 0.3 μM-induced contraction; settings: L-citrulline 1000 μM, single addition; vasoconstriction induced by 0.3 μM Norepinephrine
[2] = sublingual treatment, concentration-dependent; non-patent document 3; cited from earlier work

Row | SMILES | vascular relaxation rate (%) [1] | concentration of capsaicin solution producing a feeling of strong pain [2]
1 | NC(=O)NCCC[C@H](N)C(=O)O [L-citrulline] | 15-20% | 
2 | COc1cc(CNC(=O)CCCCC=CC(C)C)ccc1O [capsaicin, 8-methyl-N-vanillyl-6-nonenamide] |  | not less than 75 μM
